According to PubChem BioAssay (NCI):
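Cells were grown in 96-well plates and exposed to each compound for 48 hours at five concentrations; endpoints were interpolated linearly between bracketing concentrations, or set to the highest concentration if not reached. At the GI50, growth is halved. TGI is the concentration that stops growth completely.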

Legend:
Experiment in all cases: NCI tumour cell line growth inhibition, 48 h
SK-MEL-28 melanoma = tested on: SK-MEL-28 melanoma
OVCAR-3 ovarian = tested on: OVCAR-3 ovarian
EKVX NSCLC = tested on: EKVX NSCLC
CCRF-CEM leukemia = tested on: CCRF-CEM leukemia
PC-3 prostate = tested on: PC-3 prostate
HS 578T breast = tested on: HS 578T breast
SK-MEL-5 melanoma = tested on: SK-MEL-5 melanoma
RPMI-8226 leukemia = tested on: RPMI-8226 leukemia
OVCAR-4 ovarian = tested on: OVCAR-4 ovarian
SNB-75 CNS = tested on: SNB-75 CNS
786-0 renal = tested on: 786-0 renal
HCC-2998 colon = tested on: HCC-2998 colon
KM12 colon = tested on: KM12 colon
HCT-15 colon = tested on: HCT-15 colon
LOX IMVI melanoma = tested on: LOX IMVI melanoma
MOLT-4 leukemia = tested on: MOLT-4 leukemia
SK-MEL-2 melanoma = tested on: SK-MEL-2 melanoma
M14 melanoma = tested on: M14 melanoma
NCI-H460 lung = tested on: NCI-H460 lung
SF-295 CNS = tested on: SF-295 CNS
COLO 205 colon = tested on: COLO 205 colon
HOP-92 NSCLC = tested on: HOP-92 NSCLC
DU-145 prostate = tested on: DU-145 prostate
MALME-3M melanoma = tested on: MALME-3M melanoma
HL-60(TB) leukemia = tested on: HL-60(TB) leukemia
MCF7 breast = tested on: MCF7 breast
NCI-H226 lung = tested on: NCI-H226 lung
K-562 leukemia = tested on: K-562 leukemia
SF-268 CNS = tested on: SF-268 CNS
A498 renal = tested on: A498 renal
UO-31 renal = tested on: UO-31 renal
RXF 393 renal = tested on: RXF 393 renal
NCI-H23 lung = tested on: NCI-H23 lung
HCT-116 colon = tested on: HCT-116 colon
SN12C renal = tested on: SN12C renal
NCI/ADR-RES ovarian = tested on: NCI/ADR-RES ovarian
MDA-MB-435 = tested on: MDA-MB-435
OVCAR-5 ovarian = tested on: OVCAR-5 ovarian
SNB-19 CNS = tested on: SNB-19 CNS
NCI-H522 lung = tested on: NCI-H522 lung
A549 NSCLC = tested on: A549 NSCLC
SW-620 colon = tested on: SW-620 colon
HT29 colon = tested on: HT29 colon
U251 CNS = tested on: U251 CNS
BT-549 breast = tested on: BT-549 breast
HOP-62 NSCLC = tested on: HOP-62 NSCLC
SF-539 CNS = tested on: SF-539 CNS
T-47D breast = tested on: T-47D breast
SR leukemia = tested on: SR leukemia
CAKI-1 renal = tested on: CAKI-1 renal
UACC-62 melanoma = tested on: UACC-62 melanoma
UACC-257 melanoma = tested on: UACC-257 melanoma
TK-10 renal = tested on: TK-10 renal
MDA-MB-231 breast = tested on: MDA-MB-231 breast
SK-OV-3 ovarian = tested on: SK-OV-3 ovarian
IGROV1 ovarian = tested on: IGROV1 ovarian
OVCAR-8 ovarian = tested on: OVCAR-8 ovarian
ACHN renal = tested on: ACHN renal

## Cc1cc(I)cc(CN(C)CCN(C)C)c1O
SK-MEL-28 melanoma
  GI50: 18.2 µM
  TGI: 33.4 µM
OVCAR-3 ovarian
  GI50: 41.9 µM
  TGI: > 100 µM
EKVX NSCLC
  GI50: 61.5 µM
  TGI: > 100 µM
CCRF-CEM leukemia
  GI50: < 0.0354 µM
PC-3 prostate
  GI50: 29.1 µM
  TGI: > 100 µM
HS 578T breast
  GI50: 26 µM
  TGI: > 69 µM
SK-MEL-5 melanoma
  GI50: 16.5 µM
  TGI: 30.3 µM
RPMI-8226 leukemia
  GI50: 15.5 µM
  TGI: 51.6 µM
OVCAR-4 ovarian
  GI50: 52.2 µM
  TGI: > 100 µM
SNB-75 CNS
  GI50: 21.9 µM
  TGI: 59.9 µM
786-0 renal
  GI50: 40.1 µM
  TGI: > 100 µM
HCC-2998 colon
  GI50: 16.3 µM
  TGI: 32.1 µM
KM12 colon
  GI50: 46.3 µM
  TGI: > 100 µM
HCT-15 colon
  GI50: 28.5 µM
  TGI: 76.5 µM
LOX IMVI melanoma
  GI50: 24.4 µM
  TGI: > 73.1 µM
MOLT-4 leukemia
  GI50: 26.6 µM
  TGI: > 68.6 µM
SK-MEL-2 melanoma
  GI50: 22.1 µM
  TGI: 44.2 µM
M14 melanoma
  GI50: 16 µM
  TGI: 31.8 µM
NCI-H460 lung
  GI50: 26.7 µM
  TGI: > 100 µM
SF-295 CNS
  GI50: 20.5 µM
  TGI: 56.8 µM
COLO 205 colon
  GI50: 17.3 µM
  TGI: 33.3 µM
HOP-92 NSCLC
  GI50: 17.1 µM
  TGI: 67.3 µM
DU-145 prostate
  GI50: 44.4 µM
  TGI: > 100 µM
MALME-3M melanoma
  GI50: 18.9 µM
  TGI: 36.8 µM
HL-60(TB) leukemia
  GI50: 19.7 µM
  TGI: 55.9 µM
MCF7 breast
  GI50: 25.6 µM
  TGI: 66.1 µM
NCI-H226 lung
  GI50: 75.3 µM
  TGI: > 100 µM
K-562 leukemia
  GI50: 24.9 µM
  TGI: > 64.3 µM
SF-268 CNS
  GI50: 20.7 µM
  TGI: > 73 µM
A498 renal
  GI50: 33.8 µM
  TGI: > 77.9 µM
UO-31 renal
  GI50: 40.7 µM
  TGI: > 100 µM
RXF 393 renal
  GI50: 25.5 µM
  TGI: > 84.8 µM
NCI-H23 lung
  GI50: 33.1 µM
  TGI: > 100 µM
HCT-116 colon
  GI50: 24.9 µM
  TGI: > 100 µM
SN12C renal
  GI50: 47.4 µM
  TGI: > 100 µM
NCI/ADR-RES ovarian
  GI50: 38.1 µM
  TGI: > 100 µM
MDA-MB-435
  GI50: 18.8 µM
  TGI: 48.9 µM
OVCAR-5 ovarian
  GI50: 55.7 µM
  TGI: > 100 µM
SNB-19 CNS
  GI50: 64.3 µM
  TGI: > 100 µM
NCI-H522 lung
  GI50: 36.8 µM
  TGI: > 100 µM
A549 NSCLC
  GI50: 46.6 µM
  TGI: > 100 µM
SW-620 colon
  GI50: 39.5 µM
  TGI: > 100 µM
HT29 colon
  GI50: 19.4 µM
  TGI: 41.9 µM
U251 CNS
  GI50: 39.2 µM
  TGI: > 100 µM
BT-549 breast
  GI50: 26.8 µM
  TGI: > 78.3 µM
HOP-62 NSCLC
  GI50: 37.8 µM
  TGI: > 100 µM
SF-539 CNS
  GI50: 30.7 µM
  TGI: > 82.8 µM
T-47D breast
  GI50: 28.8 µM
  TGI: > 100 µM
SR leukemia
  GI50: 5.44 µM
  TGI: 50.4 µM
CAKI-1 renal
  GI50: 26.7 µM
  TGI: > 80.4 µM
UACC-62 melanoma
  GI50: 17.8 µM
  TGI: 33 µM
UACC-257 melanoma
  GI50: 39.3 µM
  TGI: > 62 µM
TK-10 renal
  GI50: 33.1 µM
  TGI: > 100 µM
MDA-MB-231 breast
  GI50: 26.7 µM
  TGI: > 72.3 µM
SK-OV-3 ovarian
  GI50: 76.6 µM
  TGI: > 100 µM
IGROV1 ovarian
  GI50: 27.7 µM
  TGI: 82.7 µM
OVCAR-8 ovarian
  GI50: 60 µM
  TGI: > 100 µM
ACHN renal
  GI50: 39.6 µM
  TGI: > 100 µM
